Data published in patent US10023570B2 (Array BioPharma, Inc., priority 2015, dated 2018).
Structures can show the parent of a compound that is named as a salt.

What follows are compounds tested against human KDR protein in HEK-293 cells (Homo sapiens (Human), UniProt P35968) (assay: KDR Cell Assay (phospho-KDR in HEK-293 cells expressing inducible KDR)). Details: pKDR Cell HEK 10% FBS IC50, HEK-293 cells expressing inducible KDR, VEGF stimulated.
Type: cell-based
Method in brief: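 HEK-293 cells with inducible human KDR were treated with compound for 1 h in DMEM (0.25% DMSO final), then lysed. Phospho-KDR was quantified by Meso Scale immunoassay, expressed as percent of control, and IC50 taken where a 4-parameter logistic fit crossed 50 POC.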

Chain of human KDR protein in HEK-293 cells (P35968 20-1356): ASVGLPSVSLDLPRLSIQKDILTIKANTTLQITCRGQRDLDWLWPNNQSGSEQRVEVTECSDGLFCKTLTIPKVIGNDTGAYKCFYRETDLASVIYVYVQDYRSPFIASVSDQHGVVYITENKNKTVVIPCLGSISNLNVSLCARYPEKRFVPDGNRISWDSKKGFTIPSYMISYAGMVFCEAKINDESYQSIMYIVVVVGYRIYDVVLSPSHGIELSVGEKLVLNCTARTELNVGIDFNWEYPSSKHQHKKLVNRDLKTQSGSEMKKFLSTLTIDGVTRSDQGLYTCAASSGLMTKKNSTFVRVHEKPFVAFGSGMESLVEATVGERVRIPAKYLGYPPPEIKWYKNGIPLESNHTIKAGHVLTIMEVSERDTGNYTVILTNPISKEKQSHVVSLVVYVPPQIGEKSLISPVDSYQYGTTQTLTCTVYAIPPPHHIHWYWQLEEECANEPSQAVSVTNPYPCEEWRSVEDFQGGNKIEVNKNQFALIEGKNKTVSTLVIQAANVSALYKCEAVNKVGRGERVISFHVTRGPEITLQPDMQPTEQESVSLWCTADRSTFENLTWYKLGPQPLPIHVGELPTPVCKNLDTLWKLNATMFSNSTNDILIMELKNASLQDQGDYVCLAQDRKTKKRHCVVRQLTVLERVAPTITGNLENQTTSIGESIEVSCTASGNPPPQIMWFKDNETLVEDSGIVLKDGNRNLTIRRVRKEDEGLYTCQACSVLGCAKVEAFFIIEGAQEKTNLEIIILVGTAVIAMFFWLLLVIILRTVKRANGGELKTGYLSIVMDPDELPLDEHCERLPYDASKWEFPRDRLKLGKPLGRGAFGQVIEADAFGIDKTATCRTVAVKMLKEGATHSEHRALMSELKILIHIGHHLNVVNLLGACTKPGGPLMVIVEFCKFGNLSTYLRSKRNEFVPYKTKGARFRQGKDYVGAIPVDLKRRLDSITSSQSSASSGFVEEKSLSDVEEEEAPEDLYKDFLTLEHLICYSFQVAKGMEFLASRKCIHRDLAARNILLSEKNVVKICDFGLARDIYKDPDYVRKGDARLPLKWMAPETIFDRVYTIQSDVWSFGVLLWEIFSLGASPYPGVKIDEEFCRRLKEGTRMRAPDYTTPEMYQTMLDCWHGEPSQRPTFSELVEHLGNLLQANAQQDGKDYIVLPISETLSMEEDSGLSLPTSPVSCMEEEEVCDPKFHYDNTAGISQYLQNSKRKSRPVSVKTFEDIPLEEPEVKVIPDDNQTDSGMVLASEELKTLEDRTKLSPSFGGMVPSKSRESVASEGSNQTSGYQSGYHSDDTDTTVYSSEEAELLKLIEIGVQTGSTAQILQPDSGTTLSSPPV

Row | Compound | IC50 [µM]
1 | Cn1cc(-c2cc(-c3ccc(N4CCCC5(CCCN5)C4)nc3)c3c(C#N)cnn3c2)cn1 (stereo not shown) [Example 542, 4-(6-(1,7-diazaspiro[4.5]decan-7-yl)pyridin-3-yl)-6-(1-methyl-1H-pyrazol-4-yl)pyrazolo[1,5-a]pyridine-3-carbonitrile dihydrochloride] | 0.222
2 | Cn1cc(-c2cc(-c3ccc(N4CCC5(CC4)CC(N)C5)nc3)c3c(C#N)cnn3c2)cn1 [Example 544, 4-(6-(2-amino-7-azaspiro[3.5]nonan-7-yl)pyridin-3-yl)-6-(1-methyl-1H-pyrazol-4-yl)pyrazolo[1,5-a]pyridine-3-carbonitrile dihydrochloride] | 0.234
3 | Cn1cc(-c2cc(-c3ccc(N4CCC5(CCCNC5)C4)nc3)c3c(C#N)cnn3c2)cn1 (stereo not shown) [Example 546, 4-(6-(2,7-diazaspiro[4.5]decan-2-yl)pyridin-3-yl)-6-(1-methyl-1H-pyrazol-4-yl)pyrazolo[1,5-a]pyridine-3-carbonitrile dihydrochloride] | 0.811
4 | Cn1cc(-c2cc(-c3ccc(N4CCC5(CNC5)C4)nc3)c3c(C#N)cnn3c2)cn1 [Example 549, 4-(6-(2,6-diazaspiro[3.4]octan-6-yl)pyridin-3-yl)-6-(1-methyl-1H-pyrazol-4-yl)pyrazolo[1,5-a]pyridine-3-carbonitrile dihydrochloride] | 0.986
5 | CN1CCC2(CCCN(c3ccc(-c4cc(-c5cnn(C)c5)cn5ncc(C#N)c45)cn3)C2)CC1 [Example 555, 6-(1-methyl-1H-pyrazol-4-yl)-4-(6-(9-methyl-2,9-diazaspiro[5.5]undecan-2-yl)pyridin-3-yl)pyrazolo[1,5-a]pyridine-3-carbonitrile] | 1.03
6 | CN1CCCC2(CCN(c3ccc(-c4cc(-c5cnn(C)c5)cn5ncc(C#N)c45)cn3)CC2)C1 [Example 556, 6-(1-methyl-1H-pyrazol-4-yl)-4-(6-(2-methyl-2,9-diazaspiro[5.5]undecan-9-yl)pyridin-3-yl)pyrazolo[1,5-a]pyridine-3-carbonitrile] | 1.9
7 | CN1CCCC12CCCN(c1ccc(-c3cc(-c4cnn(C)c4)cn4ncc(C#N)c34)cn1)C2 (stereo not shown) [Example 557, 4-(6-(1-methyl-1,7-diazaspiro[4.5]decan-7-yl)pyridin-3-yl)-6-(1-methyl-1H-pyrazol-4-yl)pyrazolo[1,5-a]pyridine-3-carbonitrile] | 0.802
8 | Cn1cc(-c2cc(-c3ccc(N4CCC(C(=O)NOCC5CC5)CC4)nc3)c3c(C#N)cnn3c2)cn1 [Example 563, 1-(5-(3-cyano-6-(1-methyl-1H-pyrazol-4-yl)pyrazolo[1,5-a]pyridin-4-yl)pyridin-2-yl)-N-(cyclopropylmethoxy)piperidine-4-carboxamide] | 0.195
9 | Cn1cc(-c2cc(-c3ccc(C4CN(Cc5ccccc5)C4)nc3)c3c(C#N)cnn3c2)cn1 [Example 580, 4-(6-(1-benzylazetidin-3-yl)pyridin-3-yl)-6-(1-methyl-1H-pyrazol-4-yl)pyrazolo[1,5-a]-pyridine-3-carbonitrile] | 1.24
10 | Cn1cc(-c2cc(-c3ccc(C4CCCN(Cc5ccccc5)C4)nc3)c3c(C#N)cnn3c2)cn1 (stereo not shown) [Example 581, 4-(6-(1-benzylpiperidin-3-yl)pyridine-3-yl)-6-(1-methyl-1H-pyrazol-4-yl)pyrazolo[1,5-a]pyridine-3-carbonitrile] | 0.671
11 | Cn1ccc(-c2cc(-c3ccc(N4CCN(Cc5ccccn5)CC4)nc3)c3c(C#N)cnn3c2)n1 [Example 588, 6-(1-methyl-1H-pyrazol-3-yl)-4-(6-(4-(pyridine-2-ylmethyl)piperazin-1-yl)pyridin-3-yl)pyrazolo[1,5-a]pyridine-3-carbonitrile] | ≥ 5
12 | Cn1cc(-c2cc(-c3ccc(N4CCN(Cc5ccccc5)CC4)nc3)c3c(C#N)cnn3c2)c(C2CC2)n1 [Example 619, 4-(6-(4-benzylpiperazin-1-yl)pyridin-3-yl)-6-(3-cyclopropyl-1-methyl-1H-pyrazol-4-yl)pyrazolo[1,5-a]pyridine-3-carbonitrile] | ≥ 5
13 | Cn1cc(-c2cc(-c3cnc(N4CCN(Cc5ccccc5)CC4)nc3)c3c(C#N)cnn3c2)cn1 [Example 639, 4-(2-(4-benzylpiperazin-1-yl)pyrimidin-5-yl)-6-(1-methyl-1H-pyrazol-4-yl)pyrazolo[1,5-a]pyridine-3-carbonitrile] | 4.68
14 | CO[C@H]1CCN(C(=O)N2CCN(c3ccc(-c4cc(-c5cnn(C)c5)cn5ncc(Cl)c45)cn3)CC2)C1 [Example 645, (S)-(4-(5-(3-chloro-6-(1-methyl-1H-pyrazol-4-yl)pyrazolo[1,5-a]pyridin-4-yl)pyridin-2-yl)piperazin-1-yl)(3-methoxypyrrolidin-1-yl)methanone] | 1.68
15 | Cc1cnn2cc(-c3cnn(C)c3)cc(-c3ccc(N4CCN(C(=O)[C@H](O)c5ccccc5)CC4)nc3)c12 [Example 652, (R)-2-hydroxy-1-(4-(5-(3-methyl-6-(1-methyl-1H-pyrazol-4-yl)pyrazolo[1,5-a]pyridin-4-yl)pyridin-2-yl)piperazin-1-yl)-2-phenyl ethan-1-one] | 1.7

Next, values leading:

Row | IC50 [µM] | Compound
16 | 0.548 | Cn1cc(-c2cc(-c3ccc(N4CCC5(CN(Cc6ccccc6)C5)C4)nc3)c3c(C#N)cnn3c2)cn1 [Example 558, 4-(6-(2-benzyl-2,6-diazaspiro[3.4]octan-6-yl)pyridin-3-yl)-6-(1-methyl-1H-pyrazol-4-yl)pyrazolo[1,5-a]pyridine-3-carbonitrile]
17 | 0.561 | Cn1cc(-c2cc(-c3ccc(C4CCN(Cc5ccccc5)C4)nc3)c3c(C#N)cnn3c2)cn1 (stereo not shown) [Example 582, 4-(6-(1-benzylpyrrolidin-3-yl)pyridine-3-yl)-6-(1-methyl-1H-pyrazol-4-yl)pyrazolo[1,5-a]pyridine-3-carbonitrile]
18 | 1.49 | COc1ccc(Cn2cc(-c3cc(-c4ccc(N5CCNCC5)nc4)c4c(C#N)cnn4c3)cn2)cc1 [Example 590, 6-(1-(4-methoxybenzyl)-1H-pyrazol-4-yl)-4-(6-(piperazin-1-yl)pyridin-3-yl)pyrazolo[1,5-a]pyridine-3-carbonitrile]
19 | 0.217 | N#Cc1cnn2cc(-c3cnn(C4CNC4)c3)cc(-c3ccc(N4CCN(Cc5ccccc5)CC4)nc3)c12 [Example 595, 6-(1-(azetidin-3-yl)-1H-pyrazol-4-yl)-4-(6-(4-benzylpiperazin-1-yl)pyridin-3-yl)pyrazolo[1,5-a]pyridine-3-carbonitrile dihydrochloride]
20 | 0.305 | CC(C)N1CC(n2cc(-c3cc(-c4ccc(N5CCN(Cc6ccccc6)CC5)nc4)c4c(C#N)cnn4c3)cn2)C1 [Example 596, 4-(6-(4-benzylpiperazin-1-yl)pyridin-3-yl)-6-(1-(1-isopropylazetidin-3-yl)-1H-pyrazol-4-yl)pyrazolo[1,5-a]pyridine-3-carbonitrile]
21 | ≥ 5 | Cc1ncc(-c2cc(-c3ccc(N4CCN(Cc5ccccc5)CC4)nc3)c3c(C#N)cnn3c2)o1 [Example 628, 4-(6-(4-benzylpiperazin-1-yl)pyridin-3-yl)-6-(2-methyloxazol-5-yl)pyrazolo[1,5-a]pyridine-3-carbonitrile]
22 | ≥ 5 | Cc1cc(-c2cc(-c3ccc(N4CCN(Cc5ccccc5)CC4)nc3)c3c(C#N)cnn3c2)on1 [Example 629, 4-(6-(4-benzylpiperazin-1-yl)pyridine-3-yl)-6-(3-methylisoxazol-5-yl)pyrazolo[1,5-a]pyridine-3-carbonitrile]
